# Where a SMILES comes first, the peptide text is derived from it. [ ]: non-standard residue; d: D form. The star is where a group is joined. d(aIle) = CC[C@H](C)[C@@H](N)C(=O)O; dOrn = NCCC[C@@H](N)C(=O)O; dDab = NCC[C@@H](N)C(=O)O; Octanoyl = CCCCCCCC(=O)*; Orn = NCCC[C@H](N)C(=O)O; Dab = NCC[C@H](N)C(=O)O
# What was measured:
# A. baumannii = format: cell-based, Acinetobacter baumannii; settings: 18 h
# Method: (§1) IV. Antimicrobial testing
# (§2) All minimum inhibitory concentrations (MICs) were determined according to Clinical and Standards Laboratory Institute (CLSI) guidelines. Briefly, peptides were dissolved in Muller-Hinton Broth (MHB) and serial dilutions made across a 96 well plate. Each well was inoculated with a suspension of the required bacterial strain to reach a final inoculum of 5 x 10^5 colony forming units per mL. The MIC was taken as the lowest concentration with no visible growth after 18 hours.
# (§3) V. Additional information on multidrug resistant strains
# (§4) Organism Resistant Susceptible
# Acinetobacter baumannii Cefotaxime Imipenem
# Isolated from sewage contaminated Tetracycline Colistin water (Tripoli, Lebanon). Ofloxacin Tobramycin
# (§5) Acinetobacter baumannii ACM 11 Ceftazimide
# (§6) Acinetobacter baumannii ACM 29 Ceftazimide
# (§7) Isolated from peritoneum of 3-year- Imipenem
# Equine erythrocytes = format: cell-based, horse; settings: red cells of equine, 100 μg mL^–1
# Method: Having assessed the antimicrobial activity of peptides 1–8 we next proceeded to assess their haemolytic activities (Table 2). Haemolytic activity was tested at 100 μg mL^–1, as the concentration required for haemolysis should be higher than antimicrobial MICs. Equine erythrocytes were exposed to peptides 1–8 and incubated for 30 min at 37 °C (Table 2). […] The low haemolytic activity observed for Oct-TriA2 (2,8-D-Lys, 7-Lys) (8) is consistent with its poor antimicrobial activity. […]
# VI. Haemolytic activity assays
# A 96-well plate was first prepared to contain phosphate-buffered saline (PBS) solutions (100 μL) of tridecaptin analogues 1 – 8 (200 μg/mL) (experiments run in triplicate). 0.1 % Triton X-100 (100 μL) was used as a positive control, while PBS (100 μL) was used as a blank. After the plate had been prepared, defibrinated horse blood (0.5 mL, VWR International) was diluted with phosphate-buffered saline (9.5 mL) and gently shaken. The resulting mixture was centrifuged (5600 rpm, 5 min) using a Thermo Scientific Heraeus Labofuge 200 centrifuge and the supernatant carefully removed. This process was repeated three more times to remove any free hemoglobin. The resulting erythrocyte pellet was gently resuspended in 9.5 mL of PBS. Aliquots of the resulting mixture (100 μL) were added to the appropriate wells on the 96-well plate using a multichannel pipette and the plate incubated at 37 °C for 30 min. The samples were gently mixed by pipetting, and 20 μL of each was added to 200 μL of PBS. Once again, the samples were gently mixed. The diluted samples were then centrifuged (7000 rpm, 5 min) using a SciSpin MINI Microfuge. Supernatant (150 μL) from each sample was added to a new 96-well plate. The absorbance of each sample was individually measured at 415 nm using a Denovix DS-11 FX+ Spectrophotometer. Percent hemolysis of the peptides was calculated relative to Triton X- 100, while the PBS negative control was used as a blank.
# E. cloacae = format: cell-based, Enterobacter cloacae; settings: 18 h
# Method: as §1, §2
# A. baumannii ACM 11 = format: cell-based, Acinetobacter baumannii; settings: ACM 11, 18 h
# Method: as §1, §2, §3, §4, §5
# [1] = system: panel of Gram-negative bacteria; test: MIC, summary over the panel of strains; format: cell-based; settings: against most strains tested
# Text: Previous studies have shown that the tridecaptins have strong activity against clinically relevant Gram-negative strains.[8],[14] This includes A. baumannii and Enterobacteriaceae such as Klebsiella pneumoniae and Enterobacter spp., however P. aeruginosa is less susceptible. The World Health Organization (WHO) currently lists carbapenemase-producing strains of these Gram-negative bacteria as critical priority pathogens. We therefore decided to synthesize a library of novel tridecaptin analogues containing conservative substitutions at positions 2, 7, 8 and/or 12, and evaluate their activity against a panel of these strains (Table 1). This panel of Gram-negative bacteria contains environmental samples isolated from sewage contaminated water in Lebanon, as well as several strains isolated from patients at clinical settings. […]
# MilliQ water and solvent B = 0.1 % TFA in ACN. […] High resolution mass spectrometry (HRMS) spectra of all peptides were recorded by Analytical Services and Environmental Projects (ASEP) at Queen’s University Belfast on a Waters LCT Premier ToF mass spectrometer using the electrospray ionisation (ESI) technique. […]
# All minimum inhibitory concentrations (MICs) were determined according to Clinical and Standards Laboratory Institute (CLSI) guidelines. […]
# A. baumannii ACM 29 = format: cell-based, Acinetobacter baumannii; settings: ACM 29, 18 h
# Method: as §1, §2
# V. Additional information on multidrug resistant strains […]
# Organism Resistant Susceptible […]
# as §6, §7
# P. pseudoalcaligenes = format: cell-based, Pseudomonas pseudoalcaligenes; settings: for Peptide MIC: 18 h; for antimicrobial activity relative to Oct-TriA1: against P. pseudoalcaligenes
# Method: as §1, §2
# K. pneumoniae IMP 177 = format: cell-based, Klebsiella pneumoniae; settings: IMP 177, 18 h
# Method: as §1, §2
# K. pneumoniae IMP 204 = format: cell-based, Klebsiella pneumoniae; settings: IMP 204, 18 h
# Method: as §1, §2
# K. pneumoniae IMP 485 = format: cell-based, Klebsiella pneumoniae; settings: IMP 485, 18 h
# Method: as §1, §2
# K. pneumoniae IMP 216 = format: cell-based, Klebsiella pneumoniae; settings: IMP 216, 18 h
# Method: as §1, §2
# K. pneumoniae = format: cell-based, Klebsiella pneumoniae; settings: 18 h
# Method: as §1, §2
# K. pneumoniae IMP 170 = format: cell-based, Klebsiella pneumoniae; settings: IMP 170, 18 h
# Method: as §1, §2
Compound,Peptide MIC (A. baumannii),% haemolysis (Equine erythrocytes),Peptide MIC (E. cloacae),Peptide MIC (A. baumannii ACM 11),antimicrobial activity relative to Oct-TriA1 (1) [1],Peptide MIC (A. baumannii ACM 29),Peptide MIC (P. pseudoalcaligenes),Peptide MIC (K. pneumoniae IMP 177),Peptide MIC (K. pneumoniae IMP 204),Peptide MIC (K. pneumoniae IMP 485),Peptide MIC (K. pneumoniae IMP 216),Peptide MIC (K. pneumoniae),Peptide MIC (K. pneumoniae IMP 170),antimicrobial activity relative to Oct-TriA1 (P. pseudoalcaligenes)
"CCCCCCCC(=O)N[C@@H](C(=O)N[C@H](CCN)C(=O)NCC(=O)N[C@H](CO)C(=O)N[C@H](Cc1c[nH]c2ccccc12)C(=O)N[C@@H](CO)C(=O)N[C@@H](CCN)C(=O)N[C@H](CCN)C(=O)N[C@@H](Cc1ccccc1)C(=O)N[C@@H](CCC(=O)O)C(=O)N[C@H](C(=O)N[C@@H](C(=O)N[C@@H](C)C(=O)O)C(C)C)C(C)C)C(C)C [Peptide 2, Oct-TriA2] (Octanoyl-[dV][dDab]G[dS][dW]S[Dab][dDab]FEV[dV]A-OH)",25 μg mL^–1,52.1%,6.25 μg mL^–1,100 μg mL^–1,two- to four-fold less active,50 μg mL^–1,50 μg mL^–1,25 μg mL^–1,12.5 μg mL^–1,12.5 μg mL^–1,12.5 μg mL^–1,12.5 μg mL^–1,12.5 μg mL^–1,–
"CCCCCCCC(=O)N[C@@H](C(=O)N[C@H](CCCN)C(=O)NCC(=O)N[C@H](CO)C(=O)N[C@H](Cc1c[nH]c2ccccc12)C(=O)N[C@@H](CO)C(=O)N[C@@H](CCCN)C(=O)N[C@H](CCN)C(=O)N[C@@H](Cc1ccccc1)C(=O)N[C@@H](CCC(=O)O)C(=O)N[C@H](C(=O)N[C@@H](C(=O)N[C@@H](C)C(=O)O)[C@@H](C)CC)C(C)C)C(C)C [Peptide 3, Oct-TriA1 (2-D-Orn, 7-Orn)] (Octanoyl-[dV][dOrn]G[dS][dW]S[Orn][dDab]FEV[d(aIle)]A-OH)",100 μg mL^–1,66.7%,25 μg mL^–1,50 μg mL^–1,–,50 μg mL^–1,12.5 μg mL^–1,25 μg mL^–1,25 μg mL^–1,25 μg mL^–1,25 μg mL^–1,100 μg mL^–1,25 μg mL^–1,enhanced antimicrobial activity
"CCCCCCCC(=O)N[C@@H](C(=O)N[C@H](CCCCN)C(=O)NCC(=O)N[C@H](CO)C(=O)N[C@H](Cc1c[nH]c2ccccc12)C(=O)N[C@@H](CO)C(=O)N[C@@H](CCCCN)C(=O)N[C@H](CCN)C(=O)N[C@@H](Cc1ccccc1)C(=O)N[C@@H](CCC(=O)O)C(=O)N[C@H](C(=O)N[C@@H](C(=O)N[C@@H](C)C(=O)O)[C@@H](C)CC)C(C)C)C(C)C [Peptide 4, Oct-TriA1 (2-D-Lys, 7-Lys)] (Octanoyl-[dV][dK]G[dS][dW]SK[dDab]FEV[d(aIle)]A-OH)",50 μg mL^–1,71.4%,25 μg mL^–1,25 μg mL^–1,–,50 μg mL^–1,25 μg mL^–1,25 μg mL^–1,25 μg mL^–1,25 μg mL^–1,25 μg mL^–1,50 μg mL^–1,25 μg mL^–1,enhanced antimicrobial activity
